Test results as given in patent US20130330358A1, “CRYSTAL STRUCTURE AND PEPTIDE INHIBITORS OF HAUSP DEUBIQUITINASE” (priority 2011, published 2013).

Assays:
[1] = target: T1, USP8 (Homo sapiens, UniProt P40818); format: biochemical; conditions: 0.25 μM purified USP8 pre-mixed with peptide 5 min
T1 sequence (P40818 1-1118): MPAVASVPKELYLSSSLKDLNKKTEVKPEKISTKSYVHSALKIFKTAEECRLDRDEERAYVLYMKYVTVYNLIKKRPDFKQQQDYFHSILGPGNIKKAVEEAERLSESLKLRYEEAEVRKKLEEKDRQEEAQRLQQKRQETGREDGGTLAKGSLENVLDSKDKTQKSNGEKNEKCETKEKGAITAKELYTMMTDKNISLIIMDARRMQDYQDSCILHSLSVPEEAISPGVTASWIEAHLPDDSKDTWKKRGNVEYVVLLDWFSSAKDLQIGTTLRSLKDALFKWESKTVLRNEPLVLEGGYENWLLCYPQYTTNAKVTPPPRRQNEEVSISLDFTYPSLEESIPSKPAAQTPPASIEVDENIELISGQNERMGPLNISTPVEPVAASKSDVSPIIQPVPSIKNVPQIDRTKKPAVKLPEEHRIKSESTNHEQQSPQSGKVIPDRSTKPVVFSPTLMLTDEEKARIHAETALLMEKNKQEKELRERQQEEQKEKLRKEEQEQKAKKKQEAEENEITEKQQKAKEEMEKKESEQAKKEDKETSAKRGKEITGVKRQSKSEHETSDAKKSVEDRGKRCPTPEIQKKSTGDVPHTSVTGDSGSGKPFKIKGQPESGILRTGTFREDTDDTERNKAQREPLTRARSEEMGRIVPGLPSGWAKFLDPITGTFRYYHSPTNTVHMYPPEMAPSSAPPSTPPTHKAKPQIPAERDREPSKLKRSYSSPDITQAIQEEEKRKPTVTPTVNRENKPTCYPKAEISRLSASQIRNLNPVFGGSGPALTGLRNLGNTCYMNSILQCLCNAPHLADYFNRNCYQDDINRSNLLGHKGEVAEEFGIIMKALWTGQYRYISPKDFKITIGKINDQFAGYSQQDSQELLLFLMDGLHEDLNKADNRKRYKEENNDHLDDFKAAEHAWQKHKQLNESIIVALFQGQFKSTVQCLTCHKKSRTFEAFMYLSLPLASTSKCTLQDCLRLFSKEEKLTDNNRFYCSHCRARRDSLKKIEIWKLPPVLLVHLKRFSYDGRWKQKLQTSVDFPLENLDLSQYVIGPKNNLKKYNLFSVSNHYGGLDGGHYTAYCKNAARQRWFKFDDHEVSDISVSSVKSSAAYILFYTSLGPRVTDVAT

[2] = system: SJSA-1 (MDM2 amplification); assay: WST-1 cell growth assay, SJSA-1; format: cell-based, human; conditions: SJSA-1, 100 μM, compared with LnCap cells
[3] = system: MCF7 (MDMX amplification); assay: WST-1 cell growth assay, MCF7; format: cell-based, human; conditions: MCF7, 100 μM, compared with LnCap cells
[4] = system: p53 and its transcriptional targets p21 and MDM2; assay: Immunoblot of p53, MDM2, p21 and HAUSP levels in PEL cells; format: cell-based, human; conditions: FIG. 3d
Text: The results were quantified as mean±s.d. of the combined results from three independent experiments; Data are mean±s. e. m.; n=200-300 cells from three independent experiments. *P<0.01 and **P<0.001. A Beckman Coulter Z2 Particle Count and size analyzer (BC Z2 CS analyzer) and trypan blue staining were used to determine cell death and for cell growth analysis. […] BrdU incorporation during the S phase is quantified as percentage of stained cells. […] Data are culled from 3 independent experiments. […] Apoptosis in VG1 cells was assessed at 48 h after treatment with 10 μM Nutlin-3a or 100 μM of each peptide by Annexin V/PI staining and measured by flow cytometry analysis. […] Numbers indicate the percentage of cells in each quadrant. […] VG1 and BJAB cells were treated with the same dose as used in (b) and (c) for 6 h and aliquots of cell lysates containing […] of protein were analyzed by IB with the indicated antibody. […] Tumors were measured by in vivo bioluminescence imaging. […] The results were quantified as mean±s.d. of the combined results from three independent experiments; Data are mean±s. e. m.; n=200-300 cells from three independent experiments. *P<0.05 and **P<0.01. […]

[5] = target: T2, HAUSP (Homo sapiens, UniProt Q93009); assay: In vitro DUB assay, purified HAUSP with ubiquitinated MDM2 as substrate; conditions: HAUSP preincubated with increasing amounts of peptide (FIG. 2f)
T2 sequence (Q93009 whole entry): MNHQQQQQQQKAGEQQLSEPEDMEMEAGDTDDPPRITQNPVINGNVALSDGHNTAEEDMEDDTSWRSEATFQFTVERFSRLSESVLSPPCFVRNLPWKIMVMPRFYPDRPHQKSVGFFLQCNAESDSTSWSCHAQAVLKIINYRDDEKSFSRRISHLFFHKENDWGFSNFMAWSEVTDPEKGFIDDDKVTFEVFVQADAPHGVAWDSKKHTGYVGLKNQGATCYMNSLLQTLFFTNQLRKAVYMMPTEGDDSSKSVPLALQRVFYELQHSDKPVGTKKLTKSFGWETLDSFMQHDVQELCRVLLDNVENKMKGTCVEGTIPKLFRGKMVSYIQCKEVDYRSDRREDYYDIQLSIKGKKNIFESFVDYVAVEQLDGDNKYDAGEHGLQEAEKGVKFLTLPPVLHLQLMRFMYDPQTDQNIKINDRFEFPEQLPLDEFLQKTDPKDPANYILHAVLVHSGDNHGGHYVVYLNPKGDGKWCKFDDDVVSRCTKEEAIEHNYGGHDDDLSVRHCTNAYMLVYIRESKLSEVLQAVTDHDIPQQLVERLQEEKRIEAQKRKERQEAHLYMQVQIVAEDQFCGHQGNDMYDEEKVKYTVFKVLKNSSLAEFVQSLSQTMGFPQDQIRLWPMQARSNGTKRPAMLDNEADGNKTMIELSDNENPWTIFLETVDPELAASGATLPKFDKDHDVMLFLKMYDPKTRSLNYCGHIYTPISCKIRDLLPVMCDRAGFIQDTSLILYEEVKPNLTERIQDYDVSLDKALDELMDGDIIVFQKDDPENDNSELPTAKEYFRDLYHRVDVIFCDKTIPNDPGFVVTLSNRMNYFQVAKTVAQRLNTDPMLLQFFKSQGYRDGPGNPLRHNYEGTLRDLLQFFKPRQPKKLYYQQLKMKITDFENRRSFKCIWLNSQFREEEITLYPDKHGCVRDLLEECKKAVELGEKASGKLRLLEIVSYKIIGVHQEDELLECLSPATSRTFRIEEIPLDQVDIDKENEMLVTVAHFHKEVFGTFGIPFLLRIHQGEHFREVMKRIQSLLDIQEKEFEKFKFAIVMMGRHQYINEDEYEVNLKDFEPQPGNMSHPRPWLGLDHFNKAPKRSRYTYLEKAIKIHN

[6] = target: T2, HAUSP; conditions: time course, K48-Ub3-7 chains, 37° C. (FIG. 2e)
[7] = target: T3, HAUSP TRAF domain HAUSP^62-205 (Homo sapiens, UniProt Q93009); assay: biochemical; format: binding; conditions: ITC, 20° C.; read-out: Kd
T3 construct: HAUSP^62-205, and HAUSP^62-560 were fused to a hexahistidine-tag2 and expressed in E. coli BL21 (DE3) RIPL cells; hexahistidine (cleaved yes); made in house; host or cells: E. coli BL21 (DE3) RIPL
T3 sequence (Q93009 62-205): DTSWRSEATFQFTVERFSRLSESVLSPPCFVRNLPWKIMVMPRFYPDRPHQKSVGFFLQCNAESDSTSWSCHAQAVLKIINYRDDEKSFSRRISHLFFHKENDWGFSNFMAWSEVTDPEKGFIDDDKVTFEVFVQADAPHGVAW
Protocol: FIG. 5. Typical isothermal titration calorimetric measurements of the interactions between the HAUSP TRAF domain and the vIRF4 protein derivatives or other peptides. Purified proteins and synthesized peptides were reconstituted in 150 mM NaCl and 10 mM HEPES (pH 7.0). The calorimetric assays were performed using a VPITC system. All experiments were carried out with a stirring speed of 300 rpm at 20° C., and the thermal power was recorded every 10 s. Data were analyzed using the ORIGIN software package (version 7.0). […] Each titration against the HAUSP TRAF domain is indicated in each panel.
Purified proteins and synthesized peptides (Peptron Inc., Deajeon, Korea) were reconstituted in 150 mM NaCl and 10 mM HEPES (pH 7.0). The calorimetric assays were performed using a VP-ITC system (MicroCal Inc., Northampton, Mass.). Samples were degassed by vacuum aspiration for 15 min prior to loading. All experiments were carried out with a stirring speed of 300 rpm at 20° C., and the thermal power was recorded every 10 s. Data were analyzed using the ORIGIN software package (version 7.0) supplied with the instrument. […]

[8] = target: T3, HAUSP TRAF domain HAUSP^62-205; assay: Size exclusion chromatography, complex formation in 5-fold excess of MDM2^137-152; format: binding; conditions: in the presence of a 5-fold molar excess of MDM2 peptide

Molecule	USP8 DUB activity [1]	cell growth inhibition [2]	cell growth inhibition [3]	HAUSP levels [4]	HAUSP DUB activity against ubiquitinated MDM2 [5]	HAUSP DUB activity, comparative kinetic analysis [6]	Kd [7] [nM]	complex formation with the HAUSP TRAF domain [8]
TRQVTQASSFTWRVPG [vif2]	neither vif1 peptide nor vif2 peptide was capable of inhibiting USP8 DUB activity	did not show as robust a susceptibility	did not show as robust a susceptibility	Neither vif1 nor vif2 peptide treatment altered HAUSP levels	efficiently blocked HAUSP enzymatic activity	completely suppressed HAUSP DUB activity		
C[C@H](NC(=O)[C@@H]1CCCN1C(=O)CNC(=O)[C@H](CCC(N)=O)NC(=O)[C@@H](N)CCC(=O)O)C(=O)N[C@@H](CC(=O)O)C(=O)N[C@@H](CC(=O)O)C(=O)N1CCC[C@H]1C(=O)NCC(=O)N[C@@H](CCC(=O)O)C(=O)NCC(=O)N1CCC[C@H]1C(=O)N[C@@H](CO)C(=O)N[C@H](C(=O)NCC(=O)O)[C@@H](C)O [EBNA1^435-449, reference compound]							480 ± 40	
CC[C@H](C)[C@H](NC(=O)[C@H](Cc1c[nH]c2ccccc12)NC(=O)[C@@H](NC(=O)[C@@H](N)CO)C(C)C)C(=O)N1CCC[C@H]1C(=O)N[C@H](C(=O)N[C@@H](CC(N)=O)C(=O)N[C@@H](CCC(=O)O)C(=O)NCC(=O)N[C@@H](C)C(=O)N[C@@H](CO)C(=O)N[C@H](C(=O)N[C@@H](CO)C(=O)NCC(=O)N[C@@H](CCSC)C(=O)O)[C@@H](C)O)C(C)C [vIRF4^202-216]	neither vif1 peptide nor vif2 peptide was capable of inhibiting USP8 DUB activity	did not show as robust a susceptibility	did not show as robust a susceptibility	Neither vif1 nor vif2 peptide treatment altered HAUSP levels	efficiently blocked HAUSP DUB activity	weakly attenuated HAUSP DUB activity		formed a stable complex
